Assay results reported in patent US9023789B2, “Amylin analogs and pharmaceutical compositions thereof” (Novo Nordisk A/S, priority 2012, dated 2015).
In brackets after ≈: the same amount, converted by molar mass. Like-named read-outs stand apart in the source and are kept apart here. Numbered stars: 1 amine (or outer) side, 2 acyl side, 3 side chain; on linkers, the order of the positions; unused ones are H or OH. Bridge positions count the residues as written; N and C are the ends. Side chains are listed from the residue outwards. Peptide text beside a SMILES is read from it. * marks the point of attachment. C20 diacid = O=C(O)CCCCCCCCCCCCCCCCCCC(=O)*; γGlu = O=C(O)[C@H](CCC(=O)[*:2])N[*:1]

Tests used:
[1] = molecular target: T1, human amylin 3(a) receptor (human calcitonin receptor + RAMP-3) in BHK570 cells (Homo sapiens, UniProt O60896+P30988); assay: ASSAY (II)a functional assay, human amylin receptor (CRE luciferase); format: cell-based; details: for EC50: human amylin receptor functional potency, assay (II), read-out: hAmylin-R funct. EC50
T1 construct: expressed in transfected cells
Summary of the method: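 BHK cells stably carrying a CRE-luciferase reporter plus calcitonin receptor, or calcitonin receptor with RAMP-3 for the amylin 3(a) receptor, were seeded and kept overnight at 37° C. Compounds were added in assay medium with 10% FBS and 10 mM Hepes, pH 7.4, for 3 hours at 37° C, then luminescence was counted.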

[2] = molecular target: T2, human calcitonin (a) receptor in BHK570 cells (Homo sapiens, UniProt P30988); assay: ASSAY (II)a functional assay, human calcitonin receptor (CRE luciferase); format: cell-based; details: read-out: hCTR funct. EC50
T2 construct: expressed in transfected cells
T2 sequence (P30988 25-474): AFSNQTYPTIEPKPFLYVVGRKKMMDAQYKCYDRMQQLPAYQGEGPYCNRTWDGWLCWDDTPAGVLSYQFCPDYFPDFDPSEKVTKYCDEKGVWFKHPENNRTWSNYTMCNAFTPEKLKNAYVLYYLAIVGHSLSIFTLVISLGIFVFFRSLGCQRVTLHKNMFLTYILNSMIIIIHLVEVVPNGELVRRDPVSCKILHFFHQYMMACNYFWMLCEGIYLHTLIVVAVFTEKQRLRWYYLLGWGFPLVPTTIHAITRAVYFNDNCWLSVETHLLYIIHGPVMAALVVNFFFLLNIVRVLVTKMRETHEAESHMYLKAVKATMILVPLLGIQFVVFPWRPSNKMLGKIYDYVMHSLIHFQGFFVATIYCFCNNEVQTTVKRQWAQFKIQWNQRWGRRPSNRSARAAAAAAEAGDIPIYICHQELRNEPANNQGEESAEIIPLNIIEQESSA
Excerpt: 1. Luciferase Assay Outline
Activation of calcitonin and amylin (coexpression of calcitonin receptor and receptor activity modifying proteins (RAMP)) receptors lead to increased intracellular concentrations of cAMP. Consequently, transcription is activated by promoters containing multiple copies of the cAMP response element (CRE). It is thus possible to measure amylin activity by the use of a CRE luciferase reporter gene introduced into BHK cells also expressing calcitonin or amylin receptors.
2. Construction of Calcitonin (a)- and Amylin 3(a)-Receptor/CRE-Luc Cell Line.
The cell line was further transfected with RAMP-3, using standard methods. This turns the calcitonin receptor into an amylin 3(a) receptor. Methotrexate, Neomycin, and Hygromycin are selection markers for luciferase, the calcitonin receptor, and RAMP-3, respectively.
To perform activity assays, BHK calcitonin (a) receptor- or amylin 3(a)-receptor/CRE-luc cells were seeded in white 96 well culture plates at a density of about 20.000 cells/well. […] After incubation overnight at 37° C. and 5% CO2, the growth medium was replaced by 50 μl/well assay medium (DMEM (without phenol red), Glutamax™, 10% FBS, and 10 mM Hepes, pH 7.4). Further, 50 μl/well of standard or sample in assay buffer were added. After 3 hours incubation at 37° C. and 5% CO2, the assay medium with standard or sample were removed and replaced by 100 μl/well PBS. Further, 100 μl/well LucLite™ was added. The plates were sealed and incubated at room temperature for 30 minutes. Finally, luminescence was measured on a TopCounter (Packard) in SPC (single photon counting) mode.

[3] = ASSAY (IV) determination of solubility; format: physicochemical
Procedure: Assay (IV)—Determination of Solubility
The polypeptide was dissolved in water at −500 nmol/ml and mixed 1:1 with a series of buffers (100 mM glycylglycine pH 3.0, 100 mM glycylglycine pH 4.0, 100 mM glycylglycine pH 5.0, 100 mM bistrispropane pH 6.0, 100 mM bistrispropane pH 6.5, 100 mM bistrispropane pH 7.0, 100 mM bistrispropane pH 7.5, 100 mM bistrispropane pH 8.0). After 18 hours at room temperature the samples were centrifuged and the polypeptide concentration determined by UPLC.

[4] = molecular target: T3, human amylin receptor (membranes from Amylin 3(a)/CRE-luc cells) (Homo sapiens, UniProt O60896+P30988); assay: ASSAY (V) binding to the human amylin receptor (SPA, 125I-rat amylin);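 also: competition binding of cell membranes (35 ng/µL) mixed with SPA beads in 384-well plates at 40 µL total volume, read by scintillation counting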
T3 construct: expressed in transfected cells
T3 sequence (P30988 25-474): T2 sequence (P30988 25-474)
T3 sequence (O60896 24-148 partner): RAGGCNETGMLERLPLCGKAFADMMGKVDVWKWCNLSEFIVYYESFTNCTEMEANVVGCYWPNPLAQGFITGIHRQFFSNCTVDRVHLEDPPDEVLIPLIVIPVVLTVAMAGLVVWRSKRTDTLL

[5] = molecular target: T4, rat amylin receptor (rat calcitonin receptor + rat RAMP 3) (Rattus norvegicus, UniProt P32214+Q9JJ73); assay: ASSAY (VI) binding to the rat amylin receptor; details: for IC50: binding to rat amylin receptor, read-out: rAmylin-R bind IC50
T4 construct: expressed in transfected cells; host or cells: BHK tk'ts 13 (transient, FuGENE 6), membranes
T4 sequence (P32214 25-479 isoform P32214-2 limits assumed): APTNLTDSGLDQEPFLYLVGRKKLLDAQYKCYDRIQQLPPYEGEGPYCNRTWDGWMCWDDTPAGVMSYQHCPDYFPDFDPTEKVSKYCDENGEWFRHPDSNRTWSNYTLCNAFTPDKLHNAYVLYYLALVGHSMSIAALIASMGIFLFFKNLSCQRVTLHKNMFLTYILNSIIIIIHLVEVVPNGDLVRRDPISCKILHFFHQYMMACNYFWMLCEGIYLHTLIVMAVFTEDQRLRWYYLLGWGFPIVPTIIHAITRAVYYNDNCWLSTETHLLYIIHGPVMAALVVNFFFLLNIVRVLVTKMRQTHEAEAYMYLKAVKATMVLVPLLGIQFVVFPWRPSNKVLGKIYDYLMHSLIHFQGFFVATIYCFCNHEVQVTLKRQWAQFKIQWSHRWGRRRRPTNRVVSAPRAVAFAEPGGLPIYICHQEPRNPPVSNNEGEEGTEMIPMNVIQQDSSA
T4 sequence (Q9JJ73 23-147 partner): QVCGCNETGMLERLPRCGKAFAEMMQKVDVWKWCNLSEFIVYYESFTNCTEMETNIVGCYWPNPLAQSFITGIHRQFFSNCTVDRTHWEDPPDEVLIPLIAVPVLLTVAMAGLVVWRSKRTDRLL
Procedure: Assay (VI)—Determination of the Binding to the Rat Amylin Receptor […] The BHK tk′ts 13 cells were transiently transfected with rat calcitonin receptor using FuGENE® 6 (Roche), according to the manufacturer's recommendations. […] Approximately 48 hours after transfection, the cells were harvested and membranes were prepared.

rat calcitonin receptor = molecular target: T5, rat calcitonin receptor (Rattus norvegicus, UniProt P32214); assay: ASSAY (VIII) binding to the rat calcitonin receptor; details: Table 7, read-out: rCTR bind IC50
T5 construct: expressed in transfected cells; host or cells: BHK tk'ts 13 (transient, FuGENE 6), membranes
T5 sequence (P32214 25-479 isoform P32214-2 limits assumed): T4 sequence (P32214 25-479 isoform P32214-2 limits assumed)
Procedure: Assay (VIII)—Determination of Binding to the Rat Calcitonin Receptor
The BHK tk′ts 13 cells were transiently transfected with rat calcitonin receptor using FuGENE® 6 (Roche), according to the manufacturer's recommendations. Cells were grown in DMEM with 10% FBS and 1% Pen/Strep. Approximately 48 hours after transfection, the cells were harvested and membranes were prepared.

[6] = molecular target: T6, human calcitonin receptor (Homo sapiens, UniProt P30988); assay: ASSAY (VII) binding to the human calcitonin receptor (SPA, 125I-Calcitonin); details: read-out: hCTR bind IC50;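 also: cell membranes (35 ng/µL) combined with SPA beads in 40 µL of pH 7.4 Hepes buffer, 384-well format, signal counted on a TopCounter instrument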
T6 construct: expressed in transfected cells
T6 sequence (P30988 25-474): T2 sequence (P30988 25-474)

[7] = human functional selectivity: hCTR funct. EC50 / hAmylin-R funct. EC50
[8] = Table 5, selectivity, hCTR bind IC50 / hAmylin-R bind IC50
[9] = Table 7, human binding selectivity, included for comparison
[10] = Table 7, rat binding selectivity, rCTR IC50 / rAmylin-R IC50

Compound: CC(C)C[C@H](NC(=O)[C@H](CCCNC(=N)N)NC(=O)[C@H](CCC(N)=O)NC(=O)[C@@H](NC(=O)[C@H](C)NC(=O)[C@@H]1CSSC[C@H](NC(=O)[C@@H](N)CCCCNC(=O)CC[C@H](NC(=O)CC[C@H](NC(=O)CCCCCCCCCCCCCCCCCCC(=O)O)C(=O)O)C(=O)O)C(=O)N[C@@H](CC(N)=O)C(=O)N[C@@H]([C@@H](C)O)C(=O)N[C@@H](C)C(=O)N[C@@H]([C@@H](C)O)C(=O)N1)[C@@H](C)O)C(=O)N[C@@H](C)C(=O)N[C@@H](CC(=O)O)C(=O)N[C@@H](Cc1ccccc1)C(=O)N[C@@H](CC(C)C)C(=O)N[C@@H](CCCNC(=N)N)C(=O)N[C@@H](Cc1c[nH]cn1)C(=O)N[C@@H](CO)C(=O)N[C@@H](CO)C(=O)N[C@@H](CC(N)=O)C(=O)N1CCC[C@H]1C(=O)N[C@@H](Cc1ccccc1)C(=O)NCC(=O)N[C@@H](C)C(=O)N1CCC[C@H]1C(=O)N[C@@H](CC(C)C)C(=O)N[C@@H](CO)C(=O)N[C@@H](CO)C(=O)N[C@H](C(=O)N[C@@H](CC(N)=O)C(=O)N[C@H](C(=O)NCC(=O)N[C@@H](CO)C(=O)N[C@@H](CC(=O)O)C(=O)N[C@H](C(=O)N[C@@H](Cc1ccc(O)cc1)C(N)=O)[C@@H](C)O)C(C)C)[C@@H](C)O [Example 3] (H-K([γGlu-γGlu-C20 diacid])CNTATCATQRLADFLRHSSNPFGAPLSSTNVGSDTY-NH2; disulfide 2-7; N-terminus assumed)
- EC50 [1]: 205 pM
- Ratio hCT/hAmylin funct. [1, 7]: 6.7
- EC50 [2]: 1380 pM
- solubility at 18 h ([3]; bistrispropane buffer, pH 6.5, read-out: Solubility pH 6.5 Concentration): ≥ 200 µM
- solubility at 18 h ([3]; bistrispropane buffer, pH 7.5, read-out: Solubility pH 7.5 Concentration): ≥ 200 µM
- solubility at 18 h ([3]; bistrispropane buffer, pH 6.0, read-out: Solubility pH 6.0 Concentration): 189 µM (≈ 853 µg/mL)
- solubility at 18 h ([3]; bistrispropane buffer, pH 7.0, read-out: Solubility pH 7.0 Concentration): 195 µM (≈ 880 µg/mL)
- solubility at 18 h ([3]; bistrispropane buffer, pH 8.0, read-out: Solubility pH 8.0 Concentration): ≥ 200 µM
- solubility at 18 h ([3]; glycylglycine buffer, pH 3.0, read-out: Solubility pH 3.0 Concentration): ≥ 200 µM
- solubility at 18 h ([3]; glycylglycine buffer, pH 4.0, read-out: Solubility pH 4.0 Concentration): 96 µM (≈ 433 µg/mL)
- solubility at 18 h ([3]; glycylglycine buffer, pH 5.0, read-out: Solubility pH 5.0 Concentration): 141 µM (≈ 636 µg/mL)
- Ratio hCT/hAmylin binding [4, 8]: 17.3
- Ratio hCT/hAmylin binding ([4]; Table 5a, selectivity, hCTR bind IC50 / hAmylin-R bind IC50): 17.3
- Ratio hCT/hAmylin binding ([4]; Table 5b, selectivity, hCTR bind IC50 / hAmylin-R bind IC50): 17.3
- Ratio hCT/hAmylin binding [4, 9]: 17.3
- Ratio hCT/hAmylin binding ([4]; Table 7a (preferred compounds), human binding selectivity, included for comparison): 17.3
- Ratio hCT/hAmylin binding ([4]; ratio of human calcitonin receptor binding IC50 to human amylin receptor binding IC50): 17.3
- IC50 ([5]; Table 7): 1000 pM
- Ratio rCT/rAmylin binding [5, 10]: 16.7
- Ratio rCT/rAmylin binding ([5]; Table 7a (preferred compounds), rat binding selectivity, rCTR IC50 / rAmylin-R IC50): 16.7
- Ratio rCT/rAmylin binding ([5]; ratio of rCTR bind IC50 to rAmylin-R bind IC50): 16.7
- IC50 (rat calcitonin receptor): 16700 pM

Compound: CC[C@H](C)[C@H](NC(=O)[C@@H]1CCCN1C(=O)CNC(=O)[C@H](Cc1ccccc1)NC(=O)[C@H](CC(N)=O)NC(=O)[C@@H]1CCCN1C(=O)[C@H](CO)NC(=O)[C@H](CO)NC(=O)[C@H](Cc1c[nH]cn1)NC(=O)[C@H](CCCNC(=N)N)NC(=O)[C@H](CC(C)C)NC(=O)[C@H](Cc1ccccc1)NC(=O)[C@H](CCC(=O)O)NC(=O)[C@H](C)NC(=O)[C@H](CC(C)C)NC(=O)[C@H](CCCNC(=N)N)NC(=O)[C@H](CCC(N)=O)NC(=O)[C@@H](NC(=O)[C@H](C)NC(=O)[C@@H]1CSSC[C@H](NC(=O)[C@H](CCCCN)NC(=O)CC[C@H](NC(=O)CCCCCCCCCCCCCCCCCCC(=O)O)C(=O)O)C(=O)N[C@@H](CC(N)=O)C(=O)N[C@@H]([C@@H](C)O)C(=O)N[C@@H](C)C(=O)N[C@@H]([C@@H](C)O)C(=O)N1)[C@@H](C)O)C(=O)N[C@@H](CC(C)C)C(=O)N1CCC[C@H]1C(=O)N1CCC[C@H]1C(=O)N[C@H](C(=O)N[C@@H](CC(N)=O)C(=O)N[C@H](C(=O)NCC(=O)N[C@@H](CO)C(=O)N[C@@H](CC(N)=O)C(=O)N[C@H](C(=O)N1CCC[C@H]1C(N)=O)[C@@H](C)O)C(C)C)[C@@H](C)O [Example 4] ({C20 diacid-γGlu}-KCNTATCATQRLAEFLRHSSPNFGPILPPTNVGSNTP-NH2; disulfide 2-7)
- Ratio hCT/hAmylin funct. ([1]; hCTR funct. EC50 / hAmylin-R funct. EC50): 1.2
- Ratio hCT/hAmylin funct. ([1]; hCTR funct. EC50 over hAmylin-R funct. EC50): 1.2
- EC50 [1]: 60 pM
- Ratio hCT/hAmylin funct. [1, 7]: 1.2
- EC50 [2]: 70 pM
- IC50 ([4]; Table 4, read-out: hAmylin-R bind IC50): 321 pM
- Ratio hCT/hAmylin binding [4, 8]: 2.1
- Ratio hCT/hAmylin binding [4, 9]: 2.1
- IC50 ([5]; Table 7): 1300 pM
- Ratio rCT/rAmylin binding [5, 10]: 3.1
- IC50 [6]: 688 pM
